Measurements: patent US11731970B1, “Pyrrolo[2,3-b]quinoline compounds as antibacterial agents” (KING FAISAL UNIVERSITY, priority 2023, dated 2023)
pIC50: −log10 of the molar value. Converted amounts (≈) assume the structure as drawn. Read-outs that look alike come from different tables or passages of the source.

How the values were obtained:
[1] = test system: Staphylococcus aureus ATCC 29213; experiment: Antibacterial MIC, CLSI M07-A10 dilution; assay type: cell-based; details: ATCC29213
[2] = test system: Staphylococcus aureus ATCC BAA-1556 (MERSA resistant); experiment: Antibacterial MIC, CLSI M07-A10 dilution; assay type: cell-based; details: ATCCBAA1556
[3] = test system: Staphylococcus epidermidis; experiment: Antibacterial MIC, CLSI M07-A10 dilution; assay type: cell-based
[4] = test system: Bacillus subtilis MTCC 441; experiment: Antibacterial MIC, CLSI M07-A10 dilution; assay type: cell-based; details: MTCC441
[5] = test system: Enterococcus faecium ATCC 35667; experiment: Antibacterial MIC, CLSI M07-A10 dilution; assay type: cell-based; details: ATCC35667
[6] = test system: Enterococcus faecium ATCC 51559 (VRE resistant); experiment: Antibacterial MIC, CLSI M07-A10 dilution; assay type: cell-based
[7] = test system: Klebsiella pneumonia MTCC 618; experiment: Antibacterial MIC, CLSI M07-A10 dilution; assay type: cell-based; details: Klebsiella pneumoniae, MTCC618
[8] = test system: Escherichia coli MTCC 443; experiment: Antibacterial MIC, CLSI M07-A10 dilution; assay type: cell-based; details: MTCC443
[9] = test system: Pseudomonas aeruginosa MTCC 741; experiment: Antibacterial MIC, CLSI M07-A10 dilution; assay type: cell-based; details: MTCC741
[10] = test system: Mycobacterium tuberculosis H37Rv strain; experiment: Anti-tubercular alamar blue microplate MIC; assay type: cell-based; details: 168 h, M. tuberculosis H37Rv, seven days at 37° C., read-out: anti-mycobacterial activity (MIC)
DNA gyrase from E. coli = target: T1, DNA gyrase from E. coli (Escherichia coli, UniProt P0AES4+P0AES6); experiment: E. coli DNA gyrase inhibition (Inspiralis assay); assay type: biochemical
T1 construct: purchased Inspiralis
Description: Inhibitory potencies were investigated utilizing the Inspiralis assay on streptavidin-coated 96-well microtiter plates. First, the plates were rehydrated with buffer (20 mM Tris-HCl with pH 7.6, 0.01% w/v BSA, 0.05% v/v Tween 20, 137 mM NaCl) and the biotinylated oligonucleotide was then immobilized. After washing off the unbound oligonucleotide, the enzyme test was performed. The reaction volume of 30 μL in buffer (35 mM Tris×HCl with pH 7.5, 4 mM MgCl2, 24 mM KCl, 2 mM DTT, 1.8 mM spermidine, 1 mM ATP, 6.5% w/v glycerol, 0.1 mg/mL albumin) contained 1.5 U of DNA gyrase from E. coli, 0.75 μg of relaxed pNO1 plasmid, and 3 μL solution of the inhibitor in 10% DMSO and 0.008% Tween 20. Reaction solutions were incubated at 37° C. for 30 min. After that, the TF buffer (50 mM NaOAc with pH 5.0, 50 mM NaCl and 50 mM MgCl2) was added to terminate the enzymatic reaction. After additional incubation for 30 min at rt, during which biotinoligonucleotide-plasmid triplex was formed, the unbound plasmid was washed off using TF buffer and SybrGOLD in T10 buffer (10 mM Tris HCl with pH 8.0 and 1 mM EDTA) was added. The fluorescence was measured with a microplate reader (BioTek Synergy H4, excitation: 485 nm, emission: 535 nm). Initial screening was done at 100 or 10 μM concentration of inhibitors. […] GraphPad Prism software was used to calculate the IC50 values. […]

T1 sequence (P0AES4 whole entry, one chain of several): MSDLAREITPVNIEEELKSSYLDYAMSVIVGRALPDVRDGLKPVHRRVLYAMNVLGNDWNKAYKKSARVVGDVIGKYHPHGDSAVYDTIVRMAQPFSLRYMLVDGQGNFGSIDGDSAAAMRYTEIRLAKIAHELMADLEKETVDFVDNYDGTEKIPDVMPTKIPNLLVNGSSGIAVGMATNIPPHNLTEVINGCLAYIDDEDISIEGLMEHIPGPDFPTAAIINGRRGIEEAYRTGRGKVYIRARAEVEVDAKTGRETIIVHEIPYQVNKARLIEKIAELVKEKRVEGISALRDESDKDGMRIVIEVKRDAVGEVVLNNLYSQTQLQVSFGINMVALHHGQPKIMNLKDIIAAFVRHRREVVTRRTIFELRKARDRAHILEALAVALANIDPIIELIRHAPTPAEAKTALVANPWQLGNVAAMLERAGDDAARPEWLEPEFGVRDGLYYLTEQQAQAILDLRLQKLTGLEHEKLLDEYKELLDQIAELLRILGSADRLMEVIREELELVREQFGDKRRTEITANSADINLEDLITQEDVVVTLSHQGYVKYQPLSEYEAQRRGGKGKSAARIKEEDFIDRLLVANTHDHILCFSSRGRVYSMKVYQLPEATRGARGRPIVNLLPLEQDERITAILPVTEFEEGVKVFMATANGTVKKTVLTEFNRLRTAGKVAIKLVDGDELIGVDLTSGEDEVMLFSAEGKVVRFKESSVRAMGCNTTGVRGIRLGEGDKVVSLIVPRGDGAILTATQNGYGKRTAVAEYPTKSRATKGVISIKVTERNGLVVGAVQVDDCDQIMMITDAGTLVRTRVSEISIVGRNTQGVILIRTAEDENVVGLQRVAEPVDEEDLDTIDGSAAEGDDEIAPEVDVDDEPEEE

In the case of `CCCCCN(C)Cc1cc(C(=O)O)ccc1-c1cc2cc3cc(F)cc(NC)c3nc2[nH]1` [Compound 6, 4-(6-fluoro-8-(methylamino)-1H-pyrrolo[2,3-b]quinolin-2-yl)-3-((methyl(pentyl)amino)methyl)benzoic acid], the MIC [1] was 0.75 mg/L (≈ 1.67 µM), the MIC [2] was 0.75 mg/L (≈ 1.67 µM) and the MIC ([3]; read-out: MIC) was 1 mg/L (≈ 2.23 µM). The MIC ([4]; Bacillus subtilis MTCC 441, read-out: MIC) was 0.5 mg/L (≈ 1.11 µM), the MIC ([5]; Enterococcus faecium ATCC 35667, read-out: MIC) was 0.75 mg/L (≈ 1.67 µM) and the MIC ([6]; Enterococcus faecium ATCC 51559 (VRE resistant), read-out: MIC) was 1 mg/L (≈ 2.23 µM). It also gave an MIC ([7]; Klebsiella pneumonia MTCC 618, read-out: MIC) of 1 mg/L (≈ 2.23 µM), an MIC ([8]; Escherichia coli MTCC 443, read-out: MIC) of 4 mg/L (≈ 8.92 µM) and an MIC ([9]; Pseudomonas aeruginosa MTCC 741, read-out: MIC) of 0.75 mg/L (≈ 1.67 µM). It also gave an MIC [10] of 4 mg/L (≈ 8.92 µM) and a pIC50 (DNA gyrase from E. coli) of 7.60.
With `CN[C@H](CC(C)C)C(=O)N[C@H]1C(=O)N[C@@H](CC(N)=O)C(=O)N[C@H]2C(=O)N[C@H]3C(=O)N[C@H](C(=O)N[C@H](C(=O)O)c4cc(O)cc(O)c4-c4cc3ccc4O)[C@H](O)c3ccc(c(Cl)c3)Oc3cc2cc(c3O[C@@H]2O[C@H](CO)[C@@H](O)[C@H](O)[C@H]2O[C@H]2C[C@](C)(N)[C@H](O)[C@H](C)O2)Oc2ccc(cc2Cl)[C@H]1O` [Vancomycin, reference compound] the MIC [3] was 1 mg/L (≈ 0.69 µM), the MIC ([4]; Bacillus subtilis) was 0.5 mg/L (≈ 0.345 µM) and the MIC ([5]; Enterococcus faecium) was 0.5 mg/L (≈ 0.345 µM). The MIC ([6]; Enterococcus faecium) was over 128 mg/L, the MIC [7] was over 128 mg/L and the MIC ([8]; Escherichia coli) was over 128 mg/L. It also gave an MIC ([9]; Pseudomonas aeruginosa) of over 128 mg/L.
